Experimental data reported in patent US9877962B2, “Piperazinyl derivatives for the treatment of cancer” (priority 2011, dated 2018).
Where two headings read alike, the source gives them in different places.

How the values were obtained:
Assay type in all cases: cell-based, human
MCF-7/adr = experiment: Cytotoxicity test (ViaLight Plus cell proliferation) on MCF-7/adr; conditions: adriamycin-resistant line, 72 hours' incubation, cell viability vs 0.5% DMSO control; for IC50: Homo sapiens, NCI/ADR-RES, 72 h, read-out: EC50 MCF-7/adr
Description: (§1) The effects of the compounds of the invention on the proliferation of cancer cells were studied on different human cancer cell lines of different tissue origin (MCF-7: breast cancer, MCF-7/adr adriamycin-resistant breast cancer, HL-60: acute promyelocytic leukaemia, HL-60/R10: doxorubicin-resistant acute promyelocytic leukaemia, HT29: colon adenocarcinoma, Mia Paca2: pancreatic tumour, Panc-1: pancreatic exocrine tumour, SK-OV-3: cisplatin- and adriamycin resistant ovarian cancer). The cancer cells used for this study were incubated at 37° C. in the presence of one of the compounds of the invention added to the culture medium at different concentrations.
(§2) The cancer cell lines were obtained from ATCC (American Type Culture Collection) for MCF-7, from Hôpital de la Pitié Salpetrière for MCF-7/adr and from Oncodesign (Dijon, France) for HL-60, HL-60/R10, HT29, MiaPaCa2, Panc-1 and SK-OV-3. They were cultured in RPMI 1640 medium containing 2 mM L-Glutamine supplemented with 10% foetal calf serum (Lonza; Verviers, Belgium). All the cell lines were held in culture at 37° C. in a humid atmosphere containing 5% CO2. Cell proliferation was assessed using the ViaLight® Plus Assay Kit (Lonza; Verviers, Belgium) following the manufacturer's instructions. The cells were seeded in 96-well culture plates compatible with luminescence read-off (white plates with transparent bottom) in a proportion of 5 000 to 10 000 cells per well in 100 μl of culture medium. After a pre-incubation time of 24 hours at 37° C., the compounds of the invention dissolved in dimethylsulfoxide (DMSO) were individually added to each well in a proportion of 0.5 μl per well. After 72 hours' incubation at 37° C. in a humid atmosphere containing 5% CO2, 50 μl of lysis buffer were added to each well and 15 minutes later 100 μl of ATP measuring agent were added. The plates were read under a luminometer to evaluate cell viability. The data obtained was processed by computer to obtain the EC50 value i.e. the concentration value of each of the compounds which induces 50% cell viability compared with a control value (0.5% DMSO alone).

HL-60/R10 = experiment: Cytotoxicity test (ViaLight Plus cell proliferation) on HL-60/R10; conditions: doxorubicin-resistant line, 72 hours' incubation, cell viability vs 0.5% DMSO control, read-out: EC50 HL60/R10; for IC50: HL-60, 72 h
Description: as §1, §2

MCF-7 = experiment: Cytotoxicity test (ViaLight Plus cell proliferation) on MCF-7; conditions: 72 hours' incubation, cell viability vs 0.5% DMSO control; for IC50: Homo sapiens, MCF7, 72 h, read-out: EC50 MCF-7
Description: as §1, §2

HL-60 = experiment: Cytotoxicity test (ViaLight Plus cell proliferation) on HL-60; conditions: 72 hours' incubation, cell viability vs 0.5% DMSO control; for IC50: HL-60, 72 h, read-out: EC50 HL-60
Description: as §1, §2

| Molecule | EC50 (MCF-7/adr) [nM] | EC50 (HL-60/R10) [nM] | IC50 (MCF-7) [nM] | IC50 (HL-60; Homo sapiens) [nM] | EC50 (MCF-7) [nM] | EC50 (HL-60) [nM] | IC50 (MCF-7/adr) [nM] | IC50 (HL-60/R10; Homo sapiens) [nM] | EC50 (HL-60/R10; Homo sapiens, HL-60) [nM] | EC50 (HL-60; Homo sapiens, HL-60) [nM] |
| --- | --- | --- | --- | --- | --- | --- | --- | --- | --- | --- |
| Cc1cc(Oc2ccccc2)ccc1N(C(=O)CCl)C(C(=O)N1CCN[C@H](C(C)C)C1)c1ccc(F)cc1 (single isomer, unassigned) [I-8 dia1] | 148 | 54 | 1740 | 2030 |  |  |  |  |  |  |
| Cc1cc(Oc2ccccc2)ccc1N(C(=O)CCl)C(C(=O)N1CCN[C@H](C(C)C)C1)c1ccc(F)cc1 (single isomer, unassigned) [I-8 dia2] | 477 | 312 |  |  | 2410 | 1740 |  |  |  |  |
| CC[C@@H]1CN(C(=O)C(c2ccc(F)cc2)N(C(=O)CCl)c2ccc(Oc3ccccc3)cc2)CCN1C(=O)OC(C)(C)C (single isomer, unassigned; dia1) [I-20 dia1] | 73 | 80 |  |  | 1570 | 196 |  |  |  |  |
| C[C@H]1CN(C(=O)C(c2ccc(F)cc2)N(C(=O)CCl)c2ccc(Oc3ccccc3)cc2)CCN1 (single isomer, unassigned; dia1) [I-21 dia1] | 93 | 13 |  |  | 1950 | 2450 |  |  |  |  |
| C[C@@H]1CN(C(=O)C(c2ccc(F)cc2)N(C(=O)CCl)c2ccc(Oc3ccccc3)cc2)CCN1 (single isomer, unassigned; dia1) [I-22 dia1] | 131 | 17 |  |  | 569 | 2000 |  |  |  |  |
| Cc1cc(OC(C)C)ccc1N(C(=O)CCl)C(C(=O)N1CCN[C@@H](C(C)C)C1)c1ccc(F)cc1 (single isomer, unassigned; dia1) [I-26 dia1] | 93 | 13 |  |  | 1950 | 2450 |  |  |  |  |
| Cc1cc(OC(F)(F)F)ccc1N(C(=O)CCl)C(C(=O)N1CCN[C@@H](C(C)C)C1)c1ccc(F)cc1 (single isomer, unassigned; dia1) [I-27 dia1] | 131 | 17 |  |  | 569 | 2000 |  |  |  |  |
| Cc1cc(Oc2ccccc2)ccc1N(C(=O)CCl)C(C(=O)N1CCN(C(=O)OC(C)(C)C)C(C(=O)NCc2ccccc2)C1)c1cccs1 (single isomer, unassigned; dia1) [I-53 dia1] | 462 | 645 |  |  | 2060 | 1980 |  |  |  |  |
| CC[C@H]1CN(C(=O)C(c2ccc(F)cc2)N(C(=O)CCl)c2ccc(Oc3ccccc3)cc2C)CCN1 (single isomer, unassigned; dia2) [I-17 dia2] | 152 | 49 |  |  | 1990 | 1600 |  |  |  |  |
| CC[C@@H]1CN(C(=O)C(c2ccc(F)cc2)N(C(=O)CCl)c2ccc(Oc3ccccc3)cc2C)CCN1 (single isomer, unassigned; dia2) [I-18 dia2] | 152 | 44 |  |  | 591 | 352 |  |  |  |  |
| C[C@H]1CN(C(=O)C(c2ccc(F)cc2)N(C(=O)CCl)c2ccc(Oc3ccccc3)cc2)CCN1 (single isomer, unassigned; dia2) [I-21 dia2] | 10 | 8 |  |  | 869 | 630 |  |  |  |  |
| C[C@@H]1CN(C(=O)C(c2ccc(F)cc2)N(C(=O)CCl)c2ccc(Oc3ccccc3)cc2)CCN1 (single isomer, unassigned; dia2) [I-22 dia2] | 34 | 18 |  |  | 430 | 1150 |  |  |  |  |
| Cc1cc(OC(C)C)ccc1N(C(=O)CCl)C(C(=O)N1CCN[C@@H](C(C)C)C1)c1ccc(F)cc1 (single isomer, unassigned; dia2) [I-26 dia2] | 10 | 8 |  |  | 869 | 630 |  |  |  |  |
| Cc1cc(OC(F)(F)F)ccc1N(C(=O)CCl)C(C(=O)N1CCN[C@@H](C(C)C)C1)c1ccc(F)cc1 (single isomer, unassigned; dia2) [I-27 dia2] | 34 | 18 |  |  | 430 | 1150 |  |  |  |  |
| Cc1cc(Oc2ccccc2)ccc1N(C(=O)CCl)C(C(=O)N1CCN(C(=O)OC(C)(C)C)[C@@H](C)C1)c1ccc(F)cc1 (stereo partly shown) [Example I-9] |  |  | 2500 | 771 |  |  | 108 | 99 |  |  |
| Cc1cc(Oc2ccccc2)ccc1N(C(=O)CCl)C(C(=O)N1C[C@@H](C)N(C(=O)OC(C)(C)C)[C@@H](C)C1)c1ccc(F)cc1 (stereo partly shown) [Example I-10] |  |  | 2500 | 641 |  |  | 151 | 131 |  |  |

| Molecule | EC50 (MCF-7/adr) [nM] | EC50 (HL-60/R10) [nM] | IC50 (MCF-7) [nM] | IC50 (HL-60; Homo sapiens) [nM] | EC50 (MCF-7) [nM] | EC50 (HL-60) [nM] | IC50 (MCF-7/adr) [nM] | IC50 (HL-60/R10; Homo sapiens) [nM] | EC50 (HL-60/R10; Homo sapiens, HL-60) [nM] | EC50 (HL-60; Homo sapiens, HL-60) [nM] |
| --- | --- | --- | --- | --- | --- | --- | --- | --- | --- | --- |
| Cc1cc(Oc2ccccc2)ccc1N(C(=O)CCl)C(C(=O)N1CCN(C(=O)OC(C)(C)C)[C@H](C)C1)c1ccc(F)cc1 (stereo partly shown) [Example I-11] |  |  | 2500 | 939 |  |  | 102 | 68 |  |  |
| Cc1cc(Oc2ccccc2)ccc1N(C(=O)CCl)C(C(=O)N1CCN[C@@H](C)C1)c1ccc(F)cc1 (stereo partly shown) [Example I-12] |  |  | 1790 | 2320 |  |  | 421 | 82 | 82 | 2320 |
| Cc1cc(Oc2ccccc2)ccc1N(C(=O)CCl)C(C(=O)N1CCN[C@H](C)C1)c1ccc(F)cc1 (stereo partly shown) [Example I-13] |  |  | 2500 | 1990 |  |  | 532 | 88 | 88 | 1990 |
| Cc1cc(Oc2ccccc2)ccc1N(C(=O)CCl)C(C(=O)N1C[C@@H](C)N[C@@H](C)C1)c1ccc(F)cc1 (stereo partly shown) [Example I-14] |  |  | 2500 | 1850 |  |  | 232 | 95 | 95 | 1850 |
| CC1CN(C(=O)C(c2cccs2)N(C(=O)CCl)c2cccc(C(F)(F)F)c2)CC(C)N1C(=O)OCc1ccccc1 (stereo not shown) [Example I-29] |  |  | 1030 | 939 |  |  | 54 | 38 |  |  |
| CC1CN(C(=O)C(c2cccs2)N(C(=O)CCl)c2ccc(Oc3ccccc3)cc2)CC(C)N1 (stereo not shown) [Example I-30] |  |  | 1010 | 202 |  |  | 44 | 10 |  |  |
| CC1CN(C(=O)C(c2cccs2)N(C(=O)CCl)c2ccc(Oc3ccccc3)cc2)CC(C)N1C(=O)OCc1ccccc1 (stereo not shown) [Example I-31] |  |  | 2500 | 766 |  |  | 89 | 64 |  |  |
| CC1CN(C(=O)C(c2cccs2)N(C(=O)CCl)c2ccc(Oc3ccccc3)cc2)CC(C)N1C(=O)OC(C)(C)C (stereo not shown) [Example I-32] |  |  | 2500 | 175 |  |  | 58 | 78 |  |  |
| O=C(C(c1cccs1)N(C(=O)CCl)c1ccc(Oc2ccccc2)cc1)N1CCN2CCC[C@H]2C1 (stereo partly shown) [Example I-34] |  |  | 1780 | 1120 |  |  | 100 | 30 |  |  |
| O=C(C(c1cccs1)N(C(=O)CCl)c1ccc(Oc2ccccc2)cc1)N1CC2CC1CN2 (stereo not shown) [Example I-35] |  |  | 632 | 300 |  |  | 863 | 249 |  |  |
| C[C@@H]1CN(C(=O)C(c2cccs2)N(C(=O)CCl)c2ccc(Oc3ccccc3)cc2)CCN1C(=O)OCc1ccccc1 (stereo partly shown) [Example I-36] |  |  | 2500 | 372 |  |  | 24 | 28 |  |  |
| Cc1cc(Oc2ccccc2)ccc1N(C(=O)CCl)C(C(=O)N1CCN(C(=O)OCc2ccccc2)[C@H](C)C1)c1cccs1 (stereo partly shown) [Example I-37] |  |  | 2500 | 967 |  |  | 156 | 154 |  |  |
| Cc1c(N(C(=O)CCl)C(C(=O)N2C[C@@H](C)N[C@@H](C)C2)c2cccs2)cccc1C(F)(F)F (stereo partly shown) [Example I-38] |  |  | 2500 | 2500 |  |  | 851 | 189 |  |  |
| CC[C@H]1CN(C(=O)C(c2cccs2)N(C(=O)CCl)c2ccc(Oc3ccccc3)cc2)CCN1 (stereo partly shown) [Example I-39] |  |  | 776 | 1810 |  |  | 52 | 9 |  |  |
| tert-butyl ester of 4-[2-[(2-chloro-acetyl)-(4-phenoxy-phenyl)-amino]-2-(4-fluoro-phenyl)-acetyl]-(S)-2-isopropyl-piperazine-1-carboxylic acid [I-1 dia2] | 39 | 23 |  |  | 1300 | 824 |  |  |  |  |
